Test results as given in article PMC9402538, “Rational design of a sensitivity-enhanced tracer for discovering efficient APC–Asef inhibitors” (Nature Communications, 2022).
Where two headings read alike, the source gives them in different places. Where a SMILES comes first, the peptide text is derived from it. The star is where a group is joined. Benzoyl(4-OMe) = COc1ccc(C(=O)*)cc1

Target: T1, APC (303–739) (Homo sapiens, UniProt P25054)
T1 sequence (P25054 303-739): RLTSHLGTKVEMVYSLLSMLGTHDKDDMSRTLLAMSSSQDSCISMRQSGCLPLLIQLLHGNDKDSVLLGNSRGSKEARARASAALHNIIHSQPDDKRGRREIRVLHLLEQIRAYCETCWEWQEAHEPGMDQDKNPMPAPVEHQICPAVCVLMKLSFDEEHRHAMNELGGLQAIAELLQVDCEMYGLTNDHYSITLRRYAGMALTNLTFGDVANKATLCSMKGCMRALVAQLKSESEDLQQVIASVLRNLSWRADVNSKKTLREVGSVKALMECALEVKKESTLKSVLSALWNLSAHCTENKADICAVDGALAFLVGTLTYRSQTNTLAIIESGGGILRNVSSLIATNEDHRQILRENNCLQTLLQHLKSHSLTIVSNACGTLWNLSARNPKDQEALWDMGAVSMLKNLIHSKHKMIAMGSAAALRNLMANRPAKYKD
Assay: FP competitive assay using tracer 7
Format: binding
Settings: for IC50: Table 3 source data
In short: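 Peptide dilutions were first incubated 1 h at room temperature with APC (303–739) in HEPES pH 7.5 buffer containing 300 mM NaCl, EDTA and DTT. Added FITC tracer 7 (400 nM stock) displaced over a further 1.5 h before polarization reading. IC50 values came from nonlinear regression fits of triplicate data.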

## COc1ccc(C(=O)N[C@@H](C)C(=O)NCC(=O)N[C@@H](CCC(=O)O)C(=O)N[C@@H](CO)C(=O)N[C@@H](CC(C)C)C(=O)N[C@@H](Cc2ccc(O)cc2)C(=O)N[C@@H](CCC(=O)O)C(N)=O)cc1 [MAI-516] ({Benzoyl(4-OMe)}-AGESLYE-NH2)
Conc. 1.563 μM, individual repeats, Fig3b, read-out: %inhibition
  inhibition at 1.563 µM: 96.2%
Conc. 2 μM, individual repeats, Fig3b, read-out: %inhibition
  inhibition at 2 µM: 99.4%
Conc. 2.5 μM, individual repeats, Fig3b, read-out: %inhibition
  inhibition at 2.5 µM: 99.2%
Conc. 3.125 μM, individual repeats, Fig3b, read-out: %inhibition
  inhibition at 3.125 µM: 98.2%
Conc. 5 μM, individual repeats, Fig3b, read-out: %inhibition
  inhibition at 5 µM: 100%
Conc. 6.25 μM, individual repeats, Fig3b, read-out: %inhibition
  inhibition at 6.25 µM: 98.1%
Conc. 10 μM, individual repeats, Fig3b, read-out: %inhibition
  inhibition at 10 µM: 101%
Conc. 12.5 μM, individual repeats, Fig3b, read-out: %inhibition
  inhibition at 12.5 µM: 98.5%
Conc. 20 μM, individual repeats, Fig3b, read-out: %inhibition
  inhibition at 20 µM: 100%
Conc. 25 μM, individual repeats, Fig3b, read-out: %inhibition
  inhibition at 25 µM: 99.7%
Conc. 50 μM, individual repeats, Fig3b, read-out: %inhibition
  inhibition at 50 µM: 99%
Repeat 1, Conc. 0.0024 μM
  mean (FP signal, FigS5): 278.3
Repeat 1, Conc. 0.0049 μM
  mean (FP signal, FigS5): 270.3
Repeat 1, Conc. 0.0098 μM
  mean (FP signal, FigS5): 252
Repeat 1, Conc. 0.0195 μM
  mean (FP signal, FigS5): 216.7
Repeat 1, Conc. 0.0391 μM
  mean (FP signal, FigS5): 168
Repeat 1, Conc. 0.0781 μM
  mean (FP signal, FigS5): 122
Repeat 1, Conc. 0.1563 μM
  mean (FP signal, FigS5): 88
Repeat 1, Conc. 0.3125 μM
  mean (FP signal, FigS5): 67
Repeat 1, Conc. 0.625 μM
  mean (FP signal, FigS5): 54.3
Repeat 1, Conc. 1.25 μM
  mean (FP signal, FigS5): 49
Repeat 1, Conc. 2.5 μM
  mean (FP signal, FigS5): 46.7
Repeat 1, Conc. 5 μM
  mean (FP signal, FigS5): 44.3
Repeat 1, Conc. 10 μM
  mean (FP signal, FigS5): 42.7
Repeat 1, Conc. 20 μM
  mean (FP signal, FigS5): 44.3
Repeat 1, read-out: IC50(μM) Repeat 1
  IC50: 0.0453 µM
Repeat 2, Conc. 0.0002 μM
  mean (FP signal, FigS5): 302.3
Repeat 2, Conc. 0.0005 μM
  mean (FP signal, FigS5): 304.7
Repeat 2, Conc. 0.001 μM
  mean (FP signal, FigS5): 303
Repeat 2, Conc. 0.002 μM
  mean (FP signal, FigS5): 302.7
Repeat 2, Conc. 0.0039 μM
  mean (FP signal, FigS5): 295.7
Repeat 2, Conc. 0.0078 μM
  mean (FP signal, FigS5): 286.7
Repeat 2, Conc. 0.0156 μM
  mean (FP signal, FigS5): 253.7
Repeat 2, Conc. 0.0313 μM
  mean (FP signal, FigS5): 190.3
Repeat 2, Conc. 0.0625 μM
  mean (FP signal, FigS5): 134.3
Repeat 2, Conc. 0.125 μM
  mean (FP signal, FigS5): 96.3
Repeat 2, Conc. 0.25 μM
  mean (FP signal, FigS5): 73
Repeat 2, Conc. 0.5 μM
  mean (FP signal, FigS5): 59
Repeat 2, Conc. 1 μM
  mean (FP signal, FigS5): 51
Repeat 2, Conc. 2 μM
  mean (FP signal, FigS5): 48
Repeat 2, read-out: IC50(μM) Repeat 2
  IC50: 0.0412 µM
Repeat 3, Conc. 0.006 μM
  mean (FP signal, FigS5): 307.3
Repeat 3, Conc. 0.012 μM
  mean (FP signal, FigS5): 294
Repeat 3, Conc. 0.024 μM
  mean (FP signal, FigS5): 259
Repeat 3, Conc. 0.049 μM
  mean (FP signal, FigS5): 199.7
Repeat 3, Conc. 0.098 μM
  mean (FP signal, FigS5): 140
Repeat 3, Conc. 0.195 μM
  mean (FP signal, FigS5): 103.3
Repeat 3, Conc. 0.391 μM
  mean (FP signal, FigS5): 81.3
Repeat 3, Conc. 0.781 μM
  mean (FP signal, FigS5): 68
Repeat 3, Conc. 1.563 μM
  mean (FP signal, FigS5): 63.7
Repeat 3, Conc. 3.125 μM
  mean (FP signal, FigS5): 58.3
Repeat 3, Conc. 6.25 μM
  mean (FP signal, FigS5): 58.7
Repeat 3, Conc. 12.5 μM
  mean (FP signal, FigS5): 57.7
Repeat 3, Conc. 25 μM
  mean (FP signal, FigS5): 54.3
Repeat 3, Conc. 50 μM
  mean (FP signal, FigS5): 56.3
Repeat 3, read-out: IC50(μM) Repeat 3
  IC50: 0.0379 µM
Mean of 3 repeats, read-out: IC50(μM) mean
  IC50: 0.0415 µM
